# Values of other authors in US20110142757A1, “NOVEL COMPOUNDS AND THEIR USES IN DIAGNOSIS” (the University of Sydney, priority 2008, published 2011).
# Tested on: activated microglia
# Details: quinolinic acid-injected rat striatum
smiles,measurement,value
CCC(C)N(C)C(=O)c1cc2ccccc2c(-c2ccccc2Cl)n1 (stereo not shown) [PK11195],Microglial activation and neuronal death,reduces microglial activation and neuronal death
